{
  "source": "patent EP4385491A1",
  "about": "“PH-STABLE BIOTECHNOLOGY COMPOSITION BASED ON LACCASE FOR TARGETED DEGRADATION OF COLOURED MELANOIDINES AND/OR PHENOLIC ORGANIC COMPOUNDS ON DENSE SURFACES” (SkyLab AG, priority 2022, dated 2024)",
  "conditions": "pH 3.0, coffee solution, 60 min",
  "data": [
    {"smiles": "OO", "note": "[0.01% hydrogen peroxide solution, hydrogen peroxide]", "values": [
      {"measurement": "Degradation of melanoidins and phenolic organic compounds, %", "setting": "40 ± 1°C, 325 nm, laccase 0.25 wt.% raw material (0.0875 wt.% active), hydrogen peroxide 0.01%", "result": -6.0, "unit": "%"},
      {"measurement": "activity against melanoidins and phenolic organic compounds (in words)", "result": "low degradation"}
    ]}
  ]
}
